{
  "source": "patent US20130059783A1",
  "about": "“COMPOSITIONS AND METHODS FOR EXPANDING BFU-E CELLS” (priority 2010, published 2013)",
  "system": "BFU-E cells",
  "assay": "CFU-E and BFU-E colony forming assays of BFU-E cells cultured in SFELE medium",
  "assay_type": "cell-based, mouse",
  "settings": "for Total colony numbers from 1,000 \"BFU-E\" cells: CFU-E 1 cluster / Total colony numbers from 1,000 \"BFU-E\" cells: large BFU-E >20 clusters / Total colony numbers from 1,000 \"BFU-E\" cells: small BFU-E 5-20 clusters: CD24 and CD71 10% low BFU-E cells, SFELE, 100 nM Dex and/or 333 μM DMOG; for Total colony numbers from 1000 BFU-E cells: Large BFU-E / Total colony numbers from 1000 BFU-E cells: Single CFU-E / Total colony numbers from 1000 BFU-E cells: Small BFU-E: CD71 10% low BFU-E cells, SFELE with 100 nM Dex",
  "procedure": "Dexamethasone prevents BFU-E cell exhaustion, which allows more CFU-E cells to be formed. […] (A) The total number of cells formed from 1000 BFU-E cells at different time points. […] Standard deviation between four separate biological experiments is shown in parenthesis (n/d=not determined).\nAt daily intervals colony assays were performed (Table 2). As in the experiment in FIG. 3, for the first three days the total number of cells increased at the same rate in all cultures.\nColonies were scored after 3 days. […] The number of hemoglobinized early BFU-E and late BFU-E colonies was determined after 8-9 days following staining with 2,7-Diaminofluorene (Sigma Chemical, St. Louis, Mo.).",
  "key": {"[1]": {"settings": "CD71 10% low cells, SFELE with Dex, Day 3"}, "[2]": {"settings": "Day 3 of culture, 100 nM Dex or 333 μM DMOG alone"}},
  "data": [
    {"smiles": "C[C@@H]1C[C@H]2[C@@H]3CCC4=CC(=O)C=C[C@]4(C)[C@@]3(F)[C@@H](O)C[C@]2(C)[C@@]1(O)C(=O)CO", "note": "[Dex, dexamethasone]", "values": [
      {"measurement": "Total colony numbers from 1,000 \"BFU-E\" cells: CFU-E 1 cluster", "setting": "day 0 (before culture)", "value": "30 (±11)"},
      {"measurement": "Total colony numbers from 1,000 \"BFU-E\" cells: large BFU-E >20 clusters", "setting": "day 0 (before culture)", "value": "423 (±31)"},
      {"measurement": "Total colony numbers from 1,000 \"BFU-E\" cells: small BFU-E 5-20 clusters", "setting": "day 0 (before culture)", "value": "262 (±64)"},
      {"measurement": "Total colony numbers from 1,000 \"BFU-E\" cells: CFU-E 1 cluster", "setting": "day 1", "value": "424 (±271)"},
      {"measurement": "Total colony numbers from 1,000 \"BFU-E\" cells: large BFU-E >20 clusters", "setting": "day 1", "value": "463 (±61)"},
      {"measurement": "Total colony numbers from 1,000 \"BFU-E\" cells: small BFU-E 5-20 clusters", "setting": "day 1", "value": "1,766 (±695)"},
      {"measurement": "Total colony numbers from 1,000 \"BFU-E\" cells: CFU-E 1 cluster", "setting": "day 2", "value": "11,468 (±1,088)"},
      {"measurement": "Total colony numbers from 1,000 \"BFU-E\" cells: large BFU-E >20 clusters", "setting": "day 2", "value": "482 (±110)"},
      {"measurement": "Total colony numbers from 1,000 \"BFU-E\" cells: small BFU-E 5-20 clusters", "setting": "day 2", "value": "5,771 (±1,625)"},
      {"measurement": "Total colony numbers from 1,000 \"BFU-E\" cells: CFU-E 1 cluster", "setting": "day 3", "value": "60,699 (±22,369)"},
      {"measurement": "Total colony numbers from 1,000 \"BFU-E\" cells: large BFU-E >20 clusters", "setting": "day 3", "value": "400 (±108)"},
      {"measurement": "Total colony numbers from 1,000 \"BFU-E\" cells: small BFU-E 5-20 clusters", "setting": "day 3", "value": "8,334 (±2,489)"},
      {"measurement": "Total colony numbers from 1,000 \"BFU-E\" cells: CFU-E 1 cluster", "setting": "day 4", "value": "138,600 (±24,546)"},
      {"measurement": "Total colony numbers from 1,000 \"BFU-E\" cells: CFU-E 1 cluster", "setting": "day 5", "value": "261,550 (±98,160)"},
      {"measurement": "Total colony numbers from 1,000 \"BFU-E\" cells: large BFU-E >20 clusters", "setting": "day 5", "value": 0},
      {"measurement": "Total colony numbers from 1,000 \"BFU-E\" cells: small BFU-E 5-20 clusters", "setting": "day 5", "value": "10,271 (±3,344)"},
      {"measurement": "Total colony numbers from 1,000 \"BFU-E\" cells: CFU-E 1 cluster", "setting": "day 6", "value": "249,160 (±55,172)"},
      {"measurement": "Total colony numbers from 1,000 \"BFU-E\" cells: CFU-E 1 cluster", "setting": "day 7 (performed twice)", "value": "176,000 (±15,556)"},
      {"measurement": "Total colony numbers from 1,000 \"BFU-E\" cells: CFU-E 1 cluster", "setting": "day 8 (performed twice)", "value": "66,000 (±56,003)"},
      {"measurement": "Total colony numbers from 1000 BFU-E cells: Large BFU-E", "setting": "0 h (before culture)", "value": "241 (±79)"},
      {"measurement": "Total colony numbers from 1000 BFU-E cells: Single CFU-E", "setting": "0 h (before culture)", "value": "73 (±26)"},
      {"measurement": "Total colony numbers from 1000 BFU-E cells: Small BFU-E", "setting": "0 h (before culture)", "value": "277 (±89)"},
      {"measurement": "Total colony numbers from 1000 BFU-E cells: Large BFU-E", "setting": "24 h", "value": "181 (±132)"},
      {"measurement": "Total colony numbers from 1000 BFU-E cells: Single CFU-E", "setting": "24 h", "value": "1,164 (±593)"},
      {"measurement": "Total colony numbers from 1000 BFU-E cells: Small BFU-E", "setting": "24 h", "value": "1,568 (±604)"},
      {"measurement": "Total colony numbers from 1000 BFU-E cells: Large BFU-E", "setting": "48 h", "value": "130 (±53)"},
      {"measurement": "Total colony numbers from 1000 BFU-E cells: Single CFU-E", "setting": "48 h", "value": "25,342 (±5,714)"},
      {"measurement": "Total colony numbers from 1000 BFU-E cells: Small BFU-E", "setting": "48 h", "value": "6,730 (±515)"},
      {"measurement": "Total colony numbers from 1000 BFU-E cells: Large BFU-E", "setting": "72 h", "value": "150 (±58)"},
      {"measurement": "Total colony numbers from 1000 BFU-E cells: Single CFU-E", "setting": "72 h", "value": "122,413 (±14,086)"},
      {"measurement": "Total colony numbers from 1000 BFU-E cells: Small BFU-E", "setting": "72 h", "value": "15,350 (±3,838)"},
      {"measurement": "Total colony numbers from 1000 BFU-E cells: Single CFU-E", "setting": "120 h", "value": "904,050 (±434,778)"},
      {"measurement": "Late BFU-Es per initial sorted BFU-E cell", "setting": "CD71 10% low cells, SFELE with Dex, Day 2", "value": 67},
      {"measurement": "CFU-Es formed per BFU-E", "setting": "[1]", "value": 122},
      {"measurement": "Late BFU-Es per initial sorted BFU-E cell", "setting": "[1]", "value": 153},
      {"measurement": "BFU-Es per plated BFU-E", "setting": "[2]", "value": 8.7},
      {"measurement": "CFU-Es per plated BFU-E", "setting": "[2]", "value": 51},
      {"measurement": "Increase of number of CFU-E cells between Days 3 and 5", "setting": "cultures with Dex", "value": 7.3, "unit": "fold"}
    ]}
  ]
}
